Like-named read-outs stand apart in the source and are kept apart here.
Experiments:
[1] = test system: iRFP L. infantum promastigotes; assay: Antileishmanial activity on free-living iRFP L. infantum promastigotes (infrared fluorescence viability); type: cell-based; conditions: Leishmania infantum, 72 h, 26 °C
Procedure: Histone phosphorylation assays were performed in promastigotes of L. infantum BCN 150 strain, whereas the antiparasitic activity of the compounds was assessed on the transgenic strain that constitutively expresses the irfp gene encoding the infrared iRFP protein (iRFP L. infantum strain) ([Calvo-Álvarez et al., 2015]), which is derived from L. infantum BCN 150. Both strains were grown at 26 °C in M-199 medium (Gibco) supplemented with 25 mM HEPES pH 7.2, 0.1 mM adenine, 0.0005% (w/v) hemin, 2 μg/mL biopterin, 0.0001% (w/v) biotin, 10% (v/v) heat-inactivated fetal bovine serum (FBS) and an antibiotic cocktail comprising 50 U/mL penicillin and 50 μg/mL streptomycin.
(§1) The antileishmanial activity of the compounds was tested both in promastigotes and in amastigotes infecting mouse splenocytes. For this purpose, 384-well optical bottom black plates (Thermo Scientific) were seeded either with free-living iRFP L. infantum promastigotes or with splenic explants infected with iRFP L. infantum amastigotes, which were incubated at 26 °C or 37 °C, respectively. The viability of both iRFP L. infantum stages was measured by recording the fluorescence emitted by viable cells at 708 nm in an Odyssey (Li-Cor) infrared imaging system after a 72-h period of incubation with different concentrations of the compounds. Dose-response curves were obtained by plotting the infrared fluorescence emission of viable parasites vs. different concentrations of testing compounds and were fitted by nonlinear analysis using the Sigma-Plot 10.0 statistical package. The reduction of infrared emission with respect to the negative control was used to determine the 50% effective concentration to kill the parasites (EC50). Both controls and treated groups were tested with DMSO (drug vehicle) concentrations below 0.1%. All compounds and controls were assayed in triplicate.

[2] = Cytotoxicity on uninfected mouse splenocytes (Alamar Blue); type: cell-based; conditions: BALB/c, freshly isolated uninfected mouse splenocytes, non-infected mouse splenocytes, read-out: CC50 (μM) Murine Splenocytes
Procedure: Finally, the cytotoxicity of the compounds was assessed on freshly-isolated mouse splenocytes, which were obtained from uninfected BALB/c mice according to the protocol previously described. Viability of uninfected splenocytes was used to determine the cytotoxic concentration 50 (CC50) by means of the Alamar Blue staining method, according to manufacturer's recommendations (Invitrogen). Selectivity index (SI) for each compound was calculated as the ratio between the CC50 value obtained for splenic cells and the EC50 value for amastigotes.

[3] = test system: iRFP L. infantum amastigotes infecting mouse splenocytes; assay: Antileishmanial activity on iRFP L. infantum amastigotes in ex vivo murine splenic explants; type: cell-based, Leishmania infantum; conditions: for SI (Selectivity Index): CC50 (splenocytes)/EC50 (amastigotes); for EC50: Leishmania infantum, Splenocyte, 72 h, read-out: EC50 (μM) L. infantum amastigotes
Procedure: Five-week BALB/c female mice infected intraperitoneally with 1.5 × 10^9 metacyclic iRFP L. infantum promastigotes were sacrificed to eviscerate their spleens, which were processed to obtain a suspension of primary splenocytes. Briefly, freshly dissected spleens were washed with cold phosphate-buffered saline (PBS), cut in small pieces and incubated for 20 min with 5 mL of 2 mg/mL collagenase D (Sigma) prepared in buffer (10 mM HEPES, pH 7.4, 150 mM NaCl, 5 mM KCl, 1 mM MgCl2 and 1.8 mM CaCl2). Then, the cell suspension was passed through a 100 μm cell strainer, harvested by centrifugation (500×g for 7 min at 4 °C), washed twice with PBS, and resuspended in RPMI medium (Gibco) supplemented with 10 mM HEPES, 1 mM sodium pyruvate, 1xRPMI 1640 vitamin mix, 10% (v/v) FBS, 50 U/mL penicillin and 50 μg/mL streptomycin. The cell suspension was cultured in 384-well optical bottom black plates (Thermo Scientific) at 37 °C under 5% CO2 atmosphere.
as §1

[4] = test system: Leishmania topoisomerase IB (LTopIB); assay: Relaxation of supercoiled pSK DNA by recombinant LTopIB; type: biochemical; design: key: +++: inhibition at 1 μM; ++: inhibition at 10 μM; +: inhibition at 100 μM; 0: no inhibition
Procedure: (§2) Expression and purification of LTopIB and hTopIB were carried out according to a previously standardized protocol ([Villa et al., 2003]). The effect of indenoisoquinolines (compounds 1 to 20) on recombinant LTopIB and hTopIB was determined by measuring the relaxation of negatively supercoiled pBluescript-SK DNA plasmid (pSK). Briefly, in a total volume of 20 μL, 100 U of recombinant TopIB were incubated with 0.5 μg of pSK DNA in 10 mM Tris-HCl buffer (pH 7.5), 5 mM MgCl2, 5 mM dithiothreitol (DTT), 0.1 mM EDTA, […] bovine serum albumin, and 150 mM KCl. Different concentrations of indenoisoquinolines were also added. Following a 4-min incubation period at 25 °C, reactions were stopped with 1% (w/v) SDS, and incubated for one extra hour at 37 °C in the presence of 1 mg/mL proteinase K. Subsequently, samples were extracted with 1 vol phenol-chloroform mixture and were loaded on a 1% agarose gel containing 0.1 μg/mL ethidium bromide. The gel was run for 16 h at 4 V/cm, and the images were acquired using a G-Box system (Syngene, United Kingdom).

human Top IB (hTopIB) = biological target: T1, human Top IB (hTopIB) (Homo sapiens, UniProt P11387); assay: Relaxation of supercoiled pSK DNA by recombinant hTopIB; type: biochemical
T1 construct: made in house
T1 sequence (P11387 1-765): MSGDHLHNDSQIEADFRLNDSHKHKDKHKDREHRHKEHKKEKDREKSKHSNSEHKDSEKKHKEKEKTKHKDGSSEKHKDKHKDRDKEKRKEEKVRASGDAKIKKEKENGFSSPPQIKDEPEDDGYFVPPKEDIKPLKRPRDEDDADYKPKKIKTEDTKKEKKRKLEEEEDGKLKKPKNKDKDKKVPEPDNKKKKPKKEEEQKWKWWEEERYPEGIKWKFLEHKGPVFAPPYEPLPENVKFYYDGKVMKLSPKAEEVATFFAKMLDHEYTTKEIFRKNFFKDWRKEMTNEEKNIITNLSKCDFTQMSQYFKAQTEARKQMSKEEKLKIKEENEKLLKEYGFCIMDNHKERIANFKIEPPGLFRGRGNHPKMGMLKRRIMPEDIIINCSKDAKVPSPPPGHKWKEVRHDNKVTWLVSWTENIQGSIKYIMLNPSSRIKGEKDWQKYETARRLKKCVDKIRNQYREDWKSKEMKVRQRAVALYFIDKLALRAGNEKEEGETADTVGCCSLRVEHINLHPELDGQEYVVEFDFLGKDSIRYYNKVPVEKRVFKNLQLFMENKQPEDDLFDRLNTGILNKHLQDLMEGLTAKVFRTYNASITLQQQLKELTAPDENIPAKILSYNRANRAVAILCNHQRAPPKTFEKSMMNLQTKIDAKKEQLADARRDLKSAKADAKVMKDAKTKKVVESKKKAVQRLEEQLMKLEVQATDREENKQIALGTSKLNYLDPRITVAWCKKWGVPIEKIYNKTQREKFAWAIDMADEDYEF
Procedure: as §2

[5] = splenic-infecting iRFP L. infantum amastigotes, 37 °C

Compound | EC50 [1] | CC50 [2] | SI (Selectivity Index) [3] | EC50 [3, 5] | LTopIB inhibition ([4]; Table 1) | hTopIB inhibition (human Top IB (hTopIB); Table 1) | EC50 [3] | LTopIB inhibition ([4]; Table 2) | hTopIB inhibition (human Top IB (hTopIB); Table 2) | LTopIB inhibition ([4]; Table 3) | hTopIB inhibition (human Top IB (hTopIB); Table 3)
C[C@@H]1[C@H](O)[C@@H](C)/C=C/C=C/C=C/C=C/C=C/C=C/C=C/[C@H](O[C@@H]2O[C@H](C)[C@@H](O)[C@H](N)[C@@H]2O)C[C@@H]2O[C@](O)(C[C@@H](O)C[C@@H](O)[C@H](O)CC[C@@H](O)C[C@@H](O)CC(=O)O[C@H]1C)C[C@H](O)[C@H]2C(=O)O [AMB, amphotericin B, reference compound] | 0.8 ± 0.1 µM | > 20 µM | >62 | 0.3 µM | – | – | – | – | – | – | –
NCCn1c2c(c3ccccc3c1=O)C(=O)c1ccccc1-2 [Compound 1] | 0.94 ± 0.03 µM | 1.1 ± 0.06 µM | 24.4 | 0.04 ± 0.09 µM | +++ (inhibition at 1 μM) | ++ (inhibition at 10 μM) | – | – | – | – | –
COC(=O)c1ccc2c(c1)C(=O)c1c-2n(CCCN)c(=O)c2cc([N+](=O)[O-])ccc12 [Compound 4] | 1.1 ± 0.07 µM | 0.59 ± 0.02 µM | 4.2 | 0.14 ± 0.08 µM | ++ (inhibition at 10 μM) | +++ (inhibition at 1 μM) | – | – | – | – | –
CCOc1ccc2c(c1)C(=O)c1c-2n(CCCN)c(=O)c2cc([N+](=O)[O-])ccc12 [Compound 5] | 0.54 ± 0.05 µM | 0.35 ± 0.03 µM | 4.4 | 0.08 µM | ++ (inhibition at 10 μM) | +++ (inhibition at 1 μM) | – | – | – | – | –
NCCCn1c2c(c3ccc([N+](=O)[O-])cc3c1=O)C(=O)c1cc(Br)ccc1-2 [Compound 6] | 0.52 ± 0.03 µM | 0.81 ± 0.09 µM | 6.2 | 0.13 ± 0.03 µM | +++ (inhibition at 1 μM) | +++ (inhibition at 1 μM) | – | – | – | – | –
NCCCn1c2c(c3ccc([N+](=O)[O-])cc3c1=O)C(=O)c1cc3c(cc1-2)OCO3 [Compound 8] | 0.06 ± 0.01 µM | 0.05 ± 0.01 µM | 2.8 | 0.02 ± 0.05 µM | +++ (inhibition at 1 μM) | +++ (inhibition at 1 μM) | – | – | – | – | –
NCCCCn1c2c(c3ccccc3c1=O)C(=O)c1ccccc1-2 [Compound 9] | 0.43 ± 0.08 µM | 2.11 ± 0.22 µM | – | – | +++ (inhibition at 1 μM) | +++ (inhibition at 1 μM) | 0.73 ± 0.01 µM | – | – | – | –
NCCCCCn1c2c(c3ccccc3c1=O)C(=O)c1ccccc1-2 [Compound 10] | 2.4 ± 1.03 µM | 1.35 ± 0.19 µM | – | 2.29 ± 1.05 µM | +++ (inhibition at 1 μM) | +++ (inhibition at 1 μM) | – | – | – | – | –
O=C1c2ccccc2-c2c1c1ccc([N+](=O)[O-])cc1c(=O)n2CCCn1ccnc1 [Compound 11] | 0.45 ± 0.5 µM | 0.71 ± 0.01 µM | 11 | 0.06 ± 0.02 µM | – | – | – | +++ (inhibition at 1 μM) | +++ (inhibition at 1 μM) | – | –
O=C1c2cccnc2-c2c1c1ccccc1c(=O)n2CCCn1ccnc1 [Compound 13] | 2.89 ± 0.14 µM | 2.4 ± 0.35 µM | 4.1 | 0.59 ± 0.6 µM | – | – | – | + (inhibition at 100 μM) | ++ (inhibition at 10 μM) | – | –
COc1cc2c3c(n(CCCn4ccnc4)c(=O)c2cc1OC)-c1cc2c(cc1C3=O)OCO2 [Compound 14] | 1.85 ± 0.18 µM | 0.03 µM | 3.0 | 0.01 µM | – | – | – | 0 | +++ (inhibition at 1 μM) | – | –
O=C1c2ccccc2-c2c1c1ccc([N+](=O)[O-])cc1c(=O)n2CCCN1CCOCC1 [Compound 15] | > 10 µM | 18 ± 5.3 µM | 30 | 0.6 ± 0.42 µM | – | – | – | – | – | 0 | +++ (inhibition at 1 μM)
COc1ccc2c(c1)C(=O)c1c-2n(CCCN2CCOCC2)c(=O)c2cc([N+](=O)[O-])ccc12 [Compound 16] | > 10 µM | 0.59 ± 0.08 µM | – | 1.86 ± 0.29 µM | – | – | – | – | – | 0 | +++ (inhibition at 1 μM)
